“Also recorded” adds a separate entry of the source.
Key:
[1] = system: laser-induced CNV; experiment: Laser-induced choroidal neovascularization (CNV) rat model; type: in vivo, Brown Norway rats; settings: day 7
Method: FIG. 2 depicts the results of choroidal neovascularization (CNV) suppression after a single intravitreal injection 48 hours after laser exposure. Box-and-whisker plot representations of volume of CNV lesions from rats treated with a single intravitreal injection as indicated in the x-axis. The y-axis represents neovessel lesion volume expressed in cubic microns. The number of lesions evaluated per condition (n) is depicted in the graph. Values inside of the box represent the central 50% of measurements. The horizontal line inside the box corresponds to the median values, and the vertical lines outside the boxes correspond to variances of measurements. *Highly significant difference compared with oleic acid and PBS.
FIG. 3 depicts the results of daily application of sterculic acid-containing drops to suppress laser-induced CNV. (A) Representative flat-mount projections from confocal microscope Z-series 7 days after laser. The red channel identifies vessels (Isolectin IB-4). Conditions are indicated above each projection. (B) Box-and-whisker plot representations of volume of CNV lesions from rats treated with daily drops as indicated in the x-axis. The y-axis represents neovessel lesion volume expressed in cubic microns. The number of lesions evaluated per condition (n) is depicted in the graph. Values inside of the box represent the central 50% of measurements. […]
FIG. 4 depicts the dose response of CNV suppression after daily application of sterculic acid-containing drops after laser exposure. […] The number of lesions evaluated per condition (n) is depicted in the graph. […]
Laser-induced CNV, flat mount preparations, and lesion evaluations were performed following established methods. […] Neovessels were visualized with confocal microscopy using choroid/RPE flat mounts labelled with Alexa Fluor 568-Isolectin IB4 to identify endothelial cells and neovessel volumes were quantified using VOLOCITY software. […]

[2] = system: ARPE19 cells; experiment: Phase-contrast images of cells after co-treatment with 15 μM 7KCh; type: cell-based, human; settings: 1 μM fatty acid + 15 μM 7KCh, 24 hr
From the text: FIG. 8 depicts phase-contrast images of ARPE19 cells at 24 hr after sterculic acid co-treatment with 7KCh.

[3] = system: Leukemia, SR-91; experiment: NCI in vitro anti-cancer cell line screen (SRB); settings: Homo sapiens, 48 h
Method: (§1) The human tumor cell lines used in the cancer screen panel were grown in RPMI 1640 medium containing 5% FBS and 2 mM L-glutamine. The cells were inoculated into 96-well microtiter plates in 100 μl at plating density ranging from 5000 to 40,000 cell/well. […] Following drug addition, the plates were incubated for an additional 48 h. The assay was terminated by the addition of cold 10% TCA. The supernatant was discarded, and the plates were washed five times with water and air dried. Sulforhodamine B (SRB) solution (100 μl) at 0.4% (w/v) in 1% acetic acid was added to each well, and plates were incubated for 10 min at room temperature. After staining, unbound dye was removed by washing five times with 1% acetic acid and the plates were air dried. Bound stain was subsequently solubilized with 10 mM trizma base, and the absorbance was read on an automated plate reader at a wavelength of 515 nm.
(§2) A sulforhodamine B (SRB) end point was used to calculate the median growth inhibition (GI50). GI50 refers to the concentration at which the drug inhibits tumor cell growth by 50%.

[4] = system: Non-Small Cell Lung Cancer, NCI-H226; experiment: NCI in vitro anti-cancer cell line screen (SRB); settings: Homo sapiens, NCI-H226, 48 h
Method: as §1, §2

[5] = system: Colon Cancer, HCC-2998; experiment: NCI in vitro anti-cancer cell line screen (SRB); settings: Homo sapiens, HCC 2998, 48 h
Method: as §1, §2

[6] = system: Breast Cancer, NCI/ADR-RES; experiment: NCI in vitro anti-cancer cell line screen (SRB); settings: Homo sapiens, 48 h
Method: as §1, §2

[7] = system: ARPE19 cells; experiment: Microelectronic cell sensor assay (RT-CES), 7KCh-induced cytotoxicity; settings: 1 μM fatty acid + 15 μM 7KCh, serum free media
Method: 4×10^4 cells were seeded onto wells of 16× microtiter plates. […] Cell viability was determined as a cell index (CI) calculated from the impedance of each well automatically by the RT-CES system once per hr until the end of the experiment. The data was normalized at the point immediately prior to compound treatment.
RT-CES® System is a cell-based assay system that monitors cellular events by measuring the electronic impedance of sensor electrodes integrated on the bottom of microtiter E-Plates. The presence of the cells will lead to an increase in the electrode impedance. The more cells attached to the sensor, the higher the impedance that could be monitored with RT-CES.
1) Cells were cultivated in the ACEA's 16X E-plate device containing microelectrodes at the bottom of each well to measure contact area and electrical properties of adherent cells. […]
4) Cell growth was monitored periodically (every 1 hr) for indicated durations via calculation of a “cell index” (reflect to the surface area covered by the cells) in each well. […]
6) The sensor devices were put into the incubator again and the cells were continuously monitored cellular status changes.
7) Cell viability was determined as a cell index (CI) calculated from the impedance of each well automatically by the RT-CES system once per hr until the end of the experiment. […]

[8] = system: ARPE19 cells; experiment: 7-ketocholesterol-mediated cytotoxicity, 24-well CCK-8 viability and images; settings: 24 hr

For `CCCCCCCCC1=C(CCCCCCCC(=O)O)C1` [sterculic acid, 8-(2-octacyclopropen-1-yl)octanoic acid], the CNV suppression ([1]; daily drops 0.1 mM after laser, compared to PBS) was 66%, the CNV suppression ([1]; daily drops 1 mM after laser, compared to oleic acid) was 45% and the CNV suppression ([1]; single intravitreal injection 1 mM in 1 μL, 48 hours after laser, compared to oleic acid and PBS injection) was 33%. For the same compound, the “cell morphological changes compared to 7KCh alone” value [2] was “much less proportion of dead cell and cell debris”, the GI50 [3] was 10 µM and the GI50 [4] was 10 µM. The GI50 [5] was 10 µM, the GI50 [6] was 10 µM and the “protection from 7KCh induced cytotoxicity (cell index)” value [7] was “markedly protected”. The “protection of cell confluency and morphology (images)” value ([8]; 0.5 μM co-treatment with 12 μM 7KCh) was “maintain both cell confluency and cell morphology similar to the control; also recorded: apparent protection”, the “protection of cell confluency and morphology (images)” value ([8]; 1 μM co-treatment with 12 μM 7KCh) was “maintain both cell confluency and cell morphology similar to the control; also recorded: apparent protection” and the “co-treatment concentration that completely offsets the 7KCh cytotoxic effect” value ([8]; 12 μM 7KCh, CCK-8) was 1 µM. For the same compound, the “concentration at which apparent protection is seen” value ([8]; 12 μM 7KCh, CCK-8) was 0.5 µM.
